Test results from publication PMC5296932 (Angewandte Chemie (International ed. in English), 2016).
Starred links: 1 amine or outer side, 2 acyl side, 3 side chain; linkers in the order of their positions; H or OH if unused. Positions of bridges follow the written chain, without caps; N, C: chain ends. Non-standard residues stand in square brackets, D forms with d. Residues, ends and D or L forms follow the SMILES beside them. X1 = O=C(c1cc(CS[*:2])cc(CS[*:3])c1)[*:1]; 2Nal = N[C@@H](Cc1ccc2ccccc2c1)C(=O)O; Mpa = O=C(O)CCS

Assays:
[1] = Proteolytic stability in human serum; type: in vitro ADME
[2] = In vitro reduction of disulfide bonds by glutathione; type: physicochemical; details: 5 mM glutathione, 2 h

CC(C)C[C@H](NC(=O)[C@H](C)NC(=O)[C@@H]1CSSCCC(=O)N[C@@H](CCCNC(=N)N)C(=O)N[C@@H](CCCNC(=N)N)C(=O)N[C@@H](CCCNC(=N)N)C(=O)N[C@@H](CCCNC(=N)N)C(=O)N[C@@H](Cc2ccc3ccccc3c2)C(=O)N[C@@H](Cc2ccccc2)C(=O)N1)C(=O)N[C@@H](CC(=O)O)C(=O)N[C@@H](Cc1c[nH]c2ccccc12)C(=O)N[C@@H](CO)C(=O)N[C@@H](Cc1c[nH]c2ccccc12)C(=O)N[C@@H](CC(C)C)C(=O)N[C@@H](CCC(N)=O)C(=O)N[C@H](C(N)=O)[C@@H](C)O [Peptide 6] ([Mpa]RRRR[2Nal]FCALDWSWLQT-NH2; disulfide 1-8; C-terminus assumed)
half-life ([1]; human serum): ~30 min

CC(C)C[C@@H]1NC(=O)[C@H](C)NC(=O)[C@@H]2CSSCc3cc(cc(c3)C(=O)N[C@@H](CCCNC(=N)N)C(=O)N[C@@H](CCCNC(=N)N)C(=O)N[C@@H](CCCNC(=N)N)C(=O)N[C@@H](CCCNC(=N)N)C(=O)N[C@@H](Cc3ccc4ccccc4c3)C(=O)N[C@@H](Cc3ccccc3)C(=O)N2)CSSC[C@@H](C(N)=O)NC(=O)[C@H](CCC(N)=O)NC(=O)[C@H](CC(C)C)NC(=O)[C@H](Cc2c[nH]c3ccccc23)NC(=O)[C@H](CO)NC(=O)[C@H](Cc2c[nH]c3ccccc23)NC(=O)[C@H](CC(=O)O)NC1=O [Peptide 4] (RRRR[2Nal]FCALDWSWLQC-NH2; linker N-7-16 via X1)
reduction of the disulfide bonds [2]: completely reduced
half-life in human serum [1]: ~ 10 h
